From patent US10801054B2 (priority 2013, dated 2020)
“And” between values parts separate entries of the source, which are not always exact repeats. Equal entries are not always repeated.

Tested on: Phage litmus

Compound	Color change of Phage litmus bands upon exposure	Red-green-blue (RGB) color differences G3	Red-green-blue (RGB) color differences R1	Red-green-blue (RGB) color differences R3	Time in which all color matrices of the Phage litmus responded [s]	Red-green-blue (RGB) color differences G1	Red-green-blue (RGB) color differences R4
CCO [EtOH, ethanol]	immediately changed color	3.32 and 2.87 and 2.98	1.22 and 1.81 and 1.06	2.54 and 1.97 and 2.26	30		
CCOCC [Ether, diethyl ether]	immediately changed color		1.31 and 1.20 and 1.24	1.15 and 1.53 and 0.91	30	0.38 and 0.56 and 0.39	1.30 and 1.54 and 1.12
CCCCCC [Hexane, n-hexane]	immediately changed color			0.69 and 0.99 and 0.53	30		
